# Laboratory results: paper PMC5809559, “DYRK1A inhibition and cognitive rescue in a Down syndrome mouse model are induced by new fluoro-DANDY derivatives” (Scientific Reports, 2018)
# pIC50: −log10 of the molar value.
# How the values were obtained:
# [1] = test system: Ts65Dn mice; assay: Morris water maze spatial learning in Ts65Dn and WT mice; assay type: in vivo
# Text: Ts65Dn mice, the best-characterized and most widely used mouse model of DS, are trisomic for a segment of chromosome 16 extending between genes Mrp139 and Znf295 and containing approximately 92 orthologues of human chromosome 21 genes[42] including the Dyrk1a gene. […] Mice were trained for a total of 5 days to learn a fixed spatial goal location in the maze. […] In this paradigm, learning occurred when mice succeeded in decreasing their traveled distances after repeated training trials.
# Male Ts65Dn (n = 8) mice and euploid wild-type (WT) littermates (n = 10) were purchased from the Jackson Laboratory (Bar Harbor, Maine, USA). As the recessive retinal degeneration 1 mutation Pde6brd1 in the original Ts65Dn mice causes blindness in homozygotes, we used an alternative strain (SN 5252) that is wild-type for Pde6b, thereby preventing retinal degeneration. Housing conditions comprised a standard cage (air-controlled system) with ad libitum food and water and a 12 h light/dark cycle. Mice received at least one week of habituation to the animal facility, followed by three days of handling (three minutes per mouse per day). […] Treatment was continued during the MWM protocol (mice being injected 30 min before each daily session).
# Vehicle consisted of an identical composition without compound 5a.
# A white pool with a diameter of 150 cm was filled with water made opaque with non-toxic white paint (Acusol OP301, Rohm and Haas Company, Landskrone, Sweden) and kept at a constant temperature (20–21.5 °C). A 9-cm diameter platform was placed in the south-east (SE) quadrant of the pool, 1 cm under the water surface. The light intensity in the experimental room was kept constant at 70 Lux. Mice were habituated to the room for at least 30 min before starting each daily session. The acquisition phase comprised 5 days of training, four trials per day with an inter-trial interval of at least 20 min to minimize motor fatigue. The order of release positions in the pool was pseudo-randomly at the four cardinal points and changed every day to maximize spatial allocentric training and formation of a “cognitive map”. Each trial ended as soon as the mouse found the platform or after a maximum of 90 s, after which the animal was gently manually guided to the platform. Mice were left on the platform for 20 s before they were gently dried with a towel and individually placed in a cage with paper towels for further drying. The animals returned to their homecage after 5 min.
# ANY-maze Video Tracking System (Stoelting, USA) was used to record all trials. Calculated measures included 1) thigmotaxis (percent distance traveled in the 10 cm wide peripheral annulus of the pool) indicative of unsuccessful spatial strategy to locate the platform and 2) the Corrected Integrated Pathway Length (CIPL) an unbiased measure of distance-to-platform travelled taking into account the animal’s speed and the initial distance from the goal for each starting position.
# [2] = biological target: T1, DYRK1A catalytic domain (DYRK1A-ΔC) (Rattus norvegicus, UniProt Q63470); assay: In vitro DYRK1A kinase inhibition, UFLC assay with fluorescent peptide substrate; assay type: biochemical; settings: IC50, in vitro inhibition of DYRK1A, 3,5-diaryl-7-azaindoles 5a-5g, Fig. 5
# T1 construct: The cDNA coding for the catalytic domain (residues 1-502) of rat DYRK1A; 6xHis; made in house; host or cells: E. coli BL21(DE3), pET28
# [3] = Bioavailability in plasma after i.p. injection (UHPLC-MS/MS); assay type: in vivo; settings: mouse, ip, WT mice, 20 mg/kg i.p.
# Procedure: Before undertaking behavioral studies in Ts65Dn mice, the bioavailability of F-DANDY 5a in plasma after peripheral (intraperitoneal – i.p.) injection in mice was determined. […] The sample preparation and analytical protocol were adapted from Bonneau et al.[38],[39]. […] A 30 min interval was thus selected between time of injection and behavioral assessment.
# All plasma and brain homogenate extracts were analyzed by an ultra-high performance liquid chromatography (UHPLC) system coupled to a triple-quadrupole mass spectrometer (Dionex Ultimate 3000 RSLC system coupled to a TSQ Vantage EMR, Thermo Scientific, Les Ulis, France). UHPLC separation was performed using a C18 column (HSS T3, 2.1 mm × 150 mm, 1.7 μm, Waters, Guyancourt, France) equipped with a guard column (HSS T3, 2.1 mm × 5 mm, 1.7 μm, Waters, Guyancourt, France) and maintained at 40 °C. The mobile phases were water, 0.1% formic acid (A) and acetonitrile (B). […] A washing step in acetonitrile/isopropanol was added to limit carryover problems. Injection volume was 4 µL and the autosampler was maintained at 6 °C. Ionization was performed with a heated electrospray ionization source in positive mode. The source parameters were set as follows: spray voltage 3350 V, vaporizer temperature 250 °C, sheath gas (N2) pressure 55 psi, auxiliary gas pressure (N2) 25 psi, capillary temperature 350 °C. Analysis was performed under the Selected Reaction Monitoring (SRM) mode using several transitions for each compound at optimized collision energies (see Table SI2 and Figure SI1). […] Data acquisition was performed using ThermoScientific Xcalibur 2.1 software system. All samples were analyzed in triplicate.
# Two compounds, V[34] […] Limit of quantification (LOQ) was determined as the lowest point of the calibration curve at 1.6 pg/μL. […] Limit of quantification (LOQ) was determined as the lowest point of the calibration curve at 1.6 pg/mg. […]
# Using an optimized Ultra Performance Liquid Chromatography with tandem mass spectrometry (UPLC-MS/MS), compound 5a was subsequently quantified in plasma. […] All samples were analyzed in triplicate.
smiles,measurement,setting,value
"Oc1ccc(-c2cnc3[nH]cc(-c4ccc(F)cc4)c3c2)cc1O [Compound 5a, 3-(4-fluorophenyl)-5-(3,4-dihydroxyphenyl)-1H-pyrrolo[2,3-b]pyridine]",change of thigmotaxis between vehicle and 5a conditions,"[1]; Ts65Dn mice, 20 mg/kg i.p.",−12.9%
same,spatial learning performance (CIPL) in Morris water maze,"[1]; Ts65Dn mice, 20 mg/kg i.p. daily, vs vehicle, p < 0.05",significant improvement of performance
same,swim speed in Morris water maze,"[1]; Ts65Dn mice, 20 mg/kg i.p., comparison with 5a-treated WT mice p > 0.99",restored normal swim speed
same,change of thigmotaxis between vehicle and 5a conditions,"[1]; WT mice, 20 mg/kg i.p.",−6.5%
same,effect on Morris water maze performance,"[1]; wild type mice, 20 mg/kg i.p. daily, vs vehicle",no observable effect
same,pIC50,[2],7.68
same,concentration at 2.5 h,"[3]; after slow decrease over 2.5 hours, read-out: plasma level",~50 ng/mL
same,concentration at 4.4 min,[3]; t = 4.4 min,312 ng/mL
same,concentration at 5.4 min,[3]; t = 5.4 min,236 ng/mL
